Measurements taken from ChEMBL document CHEMBL4184333, “Expanding Benzoxazole-Based Inosine 5'-Monophosphate Dehydrogenase (IMPDH) Inhibitor Structure-Activity As Potential Antituberculosis Agents” (J Med Chem, 2018).
Values after ≈ are worked out from the molar mass of the structure shown. Active and inactive are the calls of the source. The calls are words filed in the database; no cut-off is given here.

How the values were obtained:
[1] = system: Mycobacterium tuberculosis; test: Antitubercular activity against Mycobacterium tuberculosis H37Rv ATCC 27294 using 7H9/ADC/Tween medium after 2 weeks in absence of guanine by broth microdilution method; format: functional, organism-based
[2] = system: Mycobacterium tuberculosis; test: Antitubercular activity against Mycobacterium tuberculosis H37Rv ATCC 27294 using 7H9/ADC/Tween medium after 1 week in presence of guanine by broth microdilution method; format: functional; conditions: H37Rv ATCC 27294, 168 h
[3] = molecular target: Inosine-5'-monophosphate dehydrogenase 2 (Homo sapiens, UniProt P12268); test: Inhibition of human IMPDH2 using IMP as substrate by spectrophotometric method; conditions: read-out: Ki(app)
[4] = molecular target: T1, GMP reductase 2 (Homo sapiens, UniProt Q9P2T1); test: Inhibition of human GMPR2 using GMP as substrate by spectrophotometric method; conditions: read-out: Ki(app)
T1 sequence (Q9P2T1 whole entry): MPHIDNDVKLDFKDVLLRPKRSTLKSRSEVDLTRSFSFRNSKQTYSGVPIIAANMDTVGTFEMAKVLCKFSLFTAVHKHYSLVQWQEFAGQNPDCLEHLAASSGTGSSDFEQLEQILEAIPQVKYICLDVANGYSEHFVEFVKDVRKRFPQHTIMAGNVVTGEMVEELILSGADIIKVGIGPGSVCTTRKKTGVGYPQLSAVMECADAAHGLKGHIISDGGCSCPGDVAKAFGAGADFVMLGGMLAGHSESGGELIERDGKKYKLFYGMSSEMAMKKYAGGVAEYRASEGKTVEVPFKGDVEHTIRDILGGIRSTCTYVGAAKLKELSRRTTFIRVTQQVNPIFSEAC

[5] = system: Mycobacterium tuberculosis; test: Antitubercular activity against Mycobacterium tuberculosis H37Rv ATCC 27294 using GAST/Fe medium after 2 weeks in absence of guanine by broth microdilution method; format: functional, organism-based
[6] = system: Mycobacterium tuberculosis; test: Antitubercular activity against Mycobacterium tuberculosis H37Rv ATCC 27294 using 7H9/ADC/Tween medium after 1 week in absence of guanine by broth microdilution method; format: functional; conditions: H37Rv ATCC 27294, 168 h
[7] = system: Mycobacterium tuberculosis; test: Antitubercular activity against Mycobacterium tuberculosis H37Rv ATCC 27294 using GAST/Fe medium after 1 week in absence of guanine by broth microdilution method; format: functional; conditions: H37Rv ATCC 27294, 168 h
[8] = system: Mycobacterium tuberculosis; test: Antitubercular activity against Mycobacterium tuberculosis H37Rv ATCC 27294 using GAST/Fe medium after 1 week in presence of guanine by broth microdilution method; format: functional; conditions: H37Rv ATCC 27294, 168 h
[9] = system: HepG2; test: (§1) Cytotoxicity against human HepG2 cells after 24 hrs by LDH release assay; format: cell-based; conditions: hepg2, 24 h
[10] = Half life in mouse liver microsomes in absence of NADPH; format: ADME, microsome
[11] = system: HeLa; test: Cytotoxicity against human HeLa cells assessed as LDH release at 25 uM after 24 hrs relative to control; format: cell-based
[12] = system: Mycobacterium tuberculosis; test: Antitubercular activity against Mycobacterium tuberculosis H37Rv ATCC 27294 using 7H9/ADC/Tween medium after 1 week in absence of guanine and presence of anhydrotetracycline by Alamar blue assay; format: functional; conditions: H37Rv ATCC 27294, 168 h
[13] = system: HepG2; test: Cytotoxicity against human HepG2 cells assessed as LDH release at 25 uM after 24 hrs relative to control; format: cell-based; conditions: hepg2, 24 h
[14] = Drug metabolism in mouse plasma after 2 hrs; format: ADME, cell-free
[15] = Protein binding in mouse serum at 20 mg/kg, po; format: ADME, organism-based; conditions: read-out: PB
[16] = system: HEK-293T; test: Cytotoxicity against human HEK293T cells assessed as LDH release at 25 uM after 24 hrs relative to control; format: cell-based
[17] = Half life in mouse liver microsomes in presence of NADPH; format: ADME, microsome
[18] = Cmax in mouse at 20 mg/kg, po; format: ADME, organism-based; parameters: dose 20 mg/kg, route oral; conditions: in vivo
[19] = Tmax in mouse at 20 mg/kg, po; format: ADME, organism-based; conditions: in vivo
[20] = system: MCF7; test: Cytotoxicity against human MCF7 cells assessed as LDH release at 25 uM after 24 hrs relative to control; format: cell-based; conditions: mcf7, 24 h
[21] = Elimination half life in mouse plasma at 20 mg/kg, po; format: ADME, organism-based; conditions: read-out: beta t1/2 (converted)
[22] = as §1; format: cell-based; conditions: HepG2 cells, read-out: LD50

Structure (SMILES)	Activity [1]	MIC [2] [µM]	Ki [3] [µM]	Ki [4] [µM]	Activity [5]	MIC [6] [µM]	MIC [7] [µM]	MIC [8] [µM]	Activity [9]	t1/2 [10] [min]	other results
CCOC(=O)COc1ccc(-c2nc3cc(NC(=O)[C@H](C)Oc4cccc(Cl)c4Cl)ccc3o2)cc1	Active	0.23	> 5	> 5	Active	0.2 to 3.1 (≈ 0.106 to 1.64 µg/mL)	0.4 (≈ 0.212 µg/mL)	0.5	Non-Toxic	1.3	
C[C@H](Oc1cccc(Cl)c1Cl)C(=O)Nc1ccc2oc(-c3ccc(OCC(=O)O)cc3)nc2c1		20	> 5	> 5		9 (≈ 4.51 µg/mL)	2 (≈ 1 µg/mL)	4		23	
C[C@H](Nc1cccc(F)c1F)C(=O)Nc1ccc2oc(-c3ccc(C#N)cc3)nc2c1	Active	1.4	> 5	> 5	Active	1 to 3.1 (≈ 0.418 to 1.3 µg/mL)	2 (≈ 0.837 µg/mL)	6			Activity [11]: < 10%; MIC [12]: 3.1 µM; Activity [13]: 9 to 13%; Drug metabolism [14]: Metabolite_Notdetected; fraction unbound [15]: < 0.01; Activity [16]: < 10%; t1/2 [17]: 26 min; Cmax [18]: 3000 nM; Tmax [19]: 30 min; Activity [20]: < 10%; half-life [21]: 300 min; CC50 at 24 h [22]: > 25 µM
C#CCOC(=O)COc1ccc(-c2nc3cc(NC(=O)[C@H](C)Oc4cccc(Cl)c4Cl)ccc3o2)cc1	Active	0.4	> 5	> 5	Active	0.2 (≈ 0.108 µg/mL)	0.4 (≈ 0.216 µg/mL)	1.4	Non-Toxic		
